Structures can show the parent of a compound that is named as a salt.

Common to all, as to type: cell-based
Experiment [1] deals with Streptococcus mutans culture (ATCC 25175). The experiment can be described thus: Quantitative Biofilm Inhibition Test. The note with it: 1 weight percent compound, broth with 1.0 weight percent sucrose, approx. twenty hours at 37° C., average OD at 550 nm as percentage of control (100%); for activity at 1 % w/w: Streptococcus mutans, ATCC25175, 20 h, read-out: OD Ratio. On the procedure:
Compounds of the dental compositions of the invention, and comparative compounds, were evaluated for biofilm inhibition activity. Composite dental restorative (available under the trade designation “FILTEK SUPREME” from 3M ESPE Dental Products, St. Paul, Minn.) was placed in a 15 millimeter by 1 millimeter stainless steel die. […] While the die containing the composite restorative was under compression, the composite was irradiated for two minutes using a Model ACE light source (available from SCHOTT North America, Inc., Auburn, N.Y.). The discs of cured composite restorative were then further cured using a Model UniXS light box (available from Heraeus Kulzer, Inc., Armonk, N.Y.) for 1.5 minutes.
The samples were incubated at 37° C. for approximately twenty hours, after which time the cured discs were removed from the broth and were gently rinsed with water. Each disc was placed in a separate test tube containing five milliliters of 1M aqueous sodium hydroxide solution, and each test tube was then sonicated for two minutes using a model SH1012-40-8 ultrasonic generator (manufactured by Branson Ultrasonics Corp., Danbury, Conn.) for two minutes to dislodge biofilm on the disc. The optical absorbance (optical density) of each aqueous sodium hydroxide solution was then measured at 550 nm using a Model ULTROSPEC III UV-visible spectrophotometer (manufactured by Pharmacia AB, Uppsala, Sweden). For each compound of the dental composition, five discs were separately incubated in broth and were evaluated separately to provide five optical density measurements. The average of the five optical density measurements was then calculated. […] The average optical density of the control or comparative samples was determined as described above. […] The ratio was considered to be proportional to the average amount of biofilm on the five cured discs, i.e., relatively low average optical density ratio was considered to be indicative of inhibition of biofilm formation. The ratio for the control was 100%.
(§1) The Quantitative Biofilm Inhibition Test was carried out using five compounds of the dental composition and eleven comparative compounds, each at a concentration of 1 weight percent. […] In addition, the Qualitative Biofilm Inhibition Test was carried out for each Example and Comparative Example, in which each disc was visually examined before it was placed in the tube containing the aqueous sodium hydroxide solution.

For experiment [2] the test system is unchanged. The experiment can be described thus: Qualitative Biofilm Inhibition Test. On the set-up: key: +: refers to a visual assessment that a compound inhibited biofilm formation; −: refers to a visual assessment that either a compound did not inhibit biofilm formation, or that bacteria grew in the culture broth. The note with it: 1 weight percent compound; visible biofilm on disc after incubation and rinse. The method, then: as §1, with “During the procedure for the Quantitative Biofilm Inhibition Test, each cured disc was visually examined after it was removed from the broth (and rinsed with water) and before it was placed in a test tube containing five milliliters of 1M aqueous sodium hydroxide solution. The presence or absence of visible biofilm on a disc was noted. The” for “The”

The test system is the same in experiment [3]. The experiment in a line: Biofilm Inhibition Test: concentration of compound to inhibit biofilm formation at varied sucrose. As to conditions: tested at 50 or 150 millimolar. On the procedure: Compounds of the dental compositions of the invention, and comparative compounds, were evaluated for biofilm inhibition activity. Composite dental restorative (available under the trade designation “FILTEK SUPREME” from 3M ESPE Dental Products, St. Paul, Minn.) was placed in a 15 millimeter by 1 millimeter stainless steel die. The open ends of the die were then covered with polyester film and the die was subjected to a pressure of 68.95 MPa using a hydraulic press. While the die containing the composite restorative was under compression, the composite was irradiated for two minutes using a Model ACE light source (available from SCHOTT North America, Inc., Auburn, N.Y.). The discs of cured composite restorative were then further cured using a Model UniXS light box (available from Heraeus Kulzer, Inc., Armonk, N.Y.) for 1.5 minutes.
The cured discs of composite restorative were then immersed in ten milliliters of Streptococcus mutans culture (ATCC 25175; 10^6 CFU/mL) prepared in brain heart infusion broth that contained 1.0 weight percent sucrose and 1 weight percent of a compound of the dental composition. The samples were incubated at 37° C. for approximately twenty hours, after which time the cured discs were removed from the broth and were gently rinsed with water. Each disc was placed in a separate test tube containing five milliliters of 1M aqueous sodium hydroxide solution, and each test tube was then sonicated for two minutes using a model SH1012-40-8 ultrasonic generator (manufactured by Branson Ultrasonics Corp., Danbury, Conn.) for two minutes to dislodge biofilm on the disc. The optical absorbance (optical density) of each aqueous sodium hydroxide solution was then measured at 550 nm using a Model ULTROSPEC III UV-visible spectrophotometer (manufactured by Pharmacia AB, Uppsala, Sweden). For each compound of the dental composition, five discs were separately incubated in broth and were evaluated separately to provide five optical density measurements. The average of the five optical density measurements was then calculated. […] The average optical density of the control or comparative samples was determined as described above. The ratio, expressed as a percentage, of the average optical density for each compound sample to the average optical density for a control sample was calculated by dividing the average optical density for each compound sample by the average optical density for a control sample and multiplying the result by one hundred. The ratio was considered to be proportional to the average amount of biofilm on the five cured discs, i.e., relatively low average optical density ratio was considered to be indicative of inhibition of biofilm formation. The ratio for the control was 100%.
During the procedure for the Quantitative Biofilm Inhibition Test, each cured disc was visually examined after it was removed from the broth (and rinsed with water) and before it was placed in a test tube containing five milliliters of 1M aqueous sodium hydroxide solution. The presence or absence of visible biofilm on a disc was noted.
The Biofilm Inhibition Test was carried out, using four compounds of the dental composition, in broth containing 1.0, 2.5, or 5.0 weight percent sucrose and the exemplary compounds of the dental composition at a concentration of either 50 millimolar or 150 millimolar. In Table 2, the millimolar concentration of compound that inhibited biofilm formation is given for each concentration of sucrose. An entry of “n/t” means that the compound was not tested in broth containing the corresponding concentration of sucrose.

Another experiment deals with Streptococcus mutans. The experiment can be described thus: Bacterial Kill Rate Test. The method, then: Compounds of the dental compositions of the invention were evaluated for extent of bacterial kill in culture. Overnight cultures of Streptococcus mutans in brain heart infusion broth (10^6 CFU/mL) was mixed with a 0.1 weight percent, 0.5 weight percent, or 1.0 weight percent aqueous solution of each compound of the dental composition. After a period of 2, 5, or 10 minutes, 1.0 mL of the mixture was transferred via pipette into a first tube containing 9.0 mL of Letheen broth to provide a 10^−1 dilution. The contents of the tube were mixed using a vortex mixer. A 1.0 mL aliquot of this sample was transferred via pipette into a second tube containing 9.0 mL of Letheen broth to provide a 10^−2 dilution. A 0.1 mL aliquot of each dilution was plated and spread in duplicate on sheep blood agar in Petri dishes, using a “hockey stick” applicator, to provide 10^−2 and 10^−3 dilutions, respectively, on each plate. The plates were incubated at 37° C. for a period of 48 to 72 hours, and then the colony forming units were counted. The CFU counts were compared and the log reduction in the counts were calculated. In Table 3, the bacteria count reduction (log reduction) is the difference between the log of the initial bacteria count and the log of the bacteria count after 2, 5, and 10 minutes.

For the compound `N[C@H]1C(O)O[C@H](CO)[C@@H](O)[C@@H]1O` (stereo partly drawn) [Glucosamine Sulfate, D-glucosamine], the “OD Ratio” value in experiment [1] was determined as 2%. For the same compound, the “Visual Assessment” value in experiment [2] is reported as “+”. In addition, the “Concentration of Compound to Inhibit Biofilm Formation” value came out at 50 mM in experiment [3] (1 wt% Sucrose) and 150 mM in experiment [3] (5 wt% Sucrose). In addition, the “Bacteria Count Reduction (log reduction)” value in the experiment on Streptococcus mutans (0.1 wt % compound, 2 min.) was 0.95 log reduction; in the experiment on Streptococcus mutans (0.1 wt % compound, 5 min.), 0.75 log reduction; in the experiment on Streptococcus mutans (0.1 wt % compound, 10 min.) it was 0.87 log reduction; in the experiment with Streptococcus mutans (0.5 wt % compound, 2 min.) it was 0.78 log reduction; in the experiment with Streptococcus mutans (0.5 wt % compound, 5 min.) it was 0.80 log reduction; in the experiment on Streptococcus mutans (0.5 wt % compound, 10 min.), 0.81 log reduction. In addition, the “Bacteria Count Reduction (log reduction)” value in the experiment with Streptococcus mutans (1.0 wt % compound, 2 min.) was 0.95 log reduction; in the experiment on Streptococcus mutans (1.0 wt % compound, 5 min.) it was 0.89 log reduction; with Streptococcus mutans (1.0 wt % compound, 10 min.), 0.97 log reduction.

As for `N[C@H]1C(O)O[C@H](COP(=O)(O)O)[C@@H](O)[C@@H]1O` (stereo partly drawn) [Glucosamine-6-Phosphate, D-glucosamine-6-phosphate], the activity at 1 % w/w in experiment [1] worked out at 2%. In experiment [2], the “Visual Assessment” value is listed as “+”. In experiment [3] (1 wt% Sucrose), the “Concentration of Compound to Inhibit Biofilm Formation” value amounted to 50 mM. The “Bacteria Count Reduction (log reduction)” value was 0.99 log reduction in the experiment on Streptococcus mutans (0.1 wt % compound, 2 min.); 0.88 log reduction with Streptococcus mutans (0.1 wt % compound, 5 min.); 1.06 log reduction with Streptococcus mutans (0.1 wt % compound, 10 min.); 0.95 log reduction with Streptococcus mutans (0.5 wt % compound, 2 min.); 1.11 log reduction in the experiment on Streptococcus mutans (0.5 wt % compound, 5 min.); 1.23 log reduction with Streptococcus mutans (0.5 wt % compound, 10 min.). The “Bacteria Count Reduction (log reduction)” value was 1.12 log reduction with Streptococcus mutans (1.0 wt % compound, 2 min.); 1.41 log reduction with Streptococcus mutans (1.0 wt % compound, 5 min.); 2.09 log reduction with Streptococcus mutans (1.0 wt % compound, 10 min.).

In the case of `N[C@@H]1C(O)O[C@H](CO)[C@@H](O)[C@@H]1O` (stereo partly drawn) [Mannosamine HCl, D-mannosamine], the activity at 1 % w/w in experiment [1] is 0%. For the same compound, the “Visual Assessment” value in experiment [2] is “+”. The “Concentration of Compound to Inhibit Biofilm Formation” value in experiment [3] (1 wt% Sucrose), in experiment [3] (2.5 wt% Sucrose) and in experiment [3] (5 wt% Sucrose) was 50 mM throughout. Besides, the “Bacteria Count Reduction (log reduction)” value is 1.01 log reduction in the experiment with Streptococcus mutans (0.1 wt % compound, 2 min.); 0.82 log reduction with Streptococcus mutans (0.1 wt % compound, 5 min.); 0.95 log reduction in the experiment on Streptococcus mutans (0.1 wt % compound, 10 min.); 0.96 log reduction in the experiment on Streptococcus mutans (0.5 wt % compound, 2 min.); 0.98 log reduction in the experiment with Streptococcus mutans (0.5 wt % compound, 5 min.); 1.00 log reduction with Streptococcus mutans (0.5 wt % compound, 10 min.). Moreover, the “Bacteria Count Reduction (log reduction)” value in the experiment on Streptococcus mutans (1.0 wt % compound, 2 min.) stood at 0.96 log reduction; with Streptococcus mutans (1.0 wt % compound, 5 min.), 1.09 log reduction; in the experiment on Streptococcus mutans (1.0 wt % compound, 10 min.) it was 0.99 log reduction.

Values taken from patent US8329674B2, “Film forming dental compositions and related methods” (3M Innovative Properties Company, priority 2007, dated 2012).
